Results as given in patent publication US20230257372A1 (CHONG KUN DANG PHARMACEUTICAL CORP., priority 2020, published 2023).
Where two headings read alike, the source gives them in different places.

Key:
human recombinant HDAC1 = biological target: T1, human recombinant HDAC1 (Homo sapiens, UniProt Q13547); test: HDAC1 enzyme activity inhibition (HDAC Fluorimetric Drug Discovery Kit); assay type: biochemical; settings: read-out: HDAC1
T1 construct: purchased Enzo Life Science, Inc. BML-SE456
Outline: (§1)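 Five-fold compound dilutions incubated with […] recombinant enzyme and 10 μM fluorogenic Fluor de Lys substrate, 60 min at 30° C. Fluor de Lys Developer II then added for 30 min to generate the fluorescent read-out.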

human recombinant HDAC6 = biological target: T2, human recombinant HDAC6 (Homo sapiens, UniProt Q9UBN7); test: HDAC6 enzyme activity inhibition (HDAC Fluorimetric Drug Discovery Kit); assay type: biochemical
T2 construct: purchased Calbiochem Inc. 382180
T2 sequence (Q9UBN7 1-1215): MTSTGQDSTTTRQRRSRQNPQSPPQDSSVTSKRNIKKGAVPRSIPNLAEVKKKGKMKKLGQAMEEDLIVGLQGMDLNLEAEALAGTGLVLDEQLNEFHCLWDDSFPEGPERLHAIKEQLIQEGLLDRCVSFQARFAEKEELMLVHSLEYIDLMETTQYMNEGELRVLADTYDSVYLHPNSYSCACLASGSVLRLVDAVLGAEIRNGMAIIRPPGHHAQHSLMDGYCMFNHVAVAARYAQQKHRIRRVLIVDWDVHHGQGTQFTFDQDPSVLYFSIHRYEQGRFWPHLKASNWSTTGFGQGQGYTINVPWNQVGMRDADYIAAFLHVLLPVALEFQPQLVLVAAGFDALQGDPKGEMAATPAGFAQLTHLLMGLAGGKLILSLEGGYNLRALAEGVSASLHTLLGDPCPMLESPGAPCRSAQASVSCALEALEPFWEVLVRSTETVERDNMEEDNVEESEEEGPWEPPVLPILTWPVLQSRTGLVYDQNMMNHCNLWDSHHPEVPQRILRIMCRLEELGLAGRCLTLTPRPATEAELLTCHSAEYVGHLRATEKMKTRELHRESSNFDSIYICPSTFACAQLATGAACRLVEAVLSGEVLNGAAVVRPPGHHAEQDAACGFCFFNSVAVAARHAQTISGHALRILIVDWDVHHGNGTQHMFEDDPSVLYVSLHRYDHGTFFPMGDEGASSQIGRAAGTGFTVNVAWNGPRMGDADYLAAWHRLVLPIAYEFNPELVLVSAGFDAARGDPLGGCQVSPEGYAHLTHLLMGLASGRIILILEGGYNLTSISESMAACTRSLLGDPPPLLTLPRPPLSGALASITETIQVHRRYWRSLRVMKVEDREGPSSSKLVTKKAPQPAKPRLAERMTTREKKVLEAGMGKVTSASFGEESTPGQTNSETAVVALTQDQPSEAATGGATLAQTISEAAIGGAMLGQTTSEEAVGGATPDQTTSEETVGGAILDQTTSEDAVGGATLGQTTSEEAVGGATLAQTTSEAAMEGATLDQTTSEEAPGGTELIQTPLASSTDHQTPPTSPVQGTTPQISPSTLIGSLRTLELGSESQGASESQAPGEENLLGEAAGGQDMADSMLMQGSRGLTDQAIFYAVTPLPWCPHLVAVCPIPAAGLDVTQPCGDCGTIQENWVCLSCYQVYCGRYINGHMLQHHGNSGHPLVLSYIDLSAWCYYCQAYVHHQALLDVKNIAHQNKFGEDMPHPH
Outline: as §1

[1] = human recombinant HDAC1, Fluor de Lys substrate, 30° C. 60 minutes
[2] = human recombinant HDAC6, same protocol as HDAC1
[3] = human recombinant HDAC1, IC50 calculated with GraphPad Prism
[4] = human recombinant HDAC6, IC50 calculated with GraphPad Prism

T1 sequence (Q13547 whole entry): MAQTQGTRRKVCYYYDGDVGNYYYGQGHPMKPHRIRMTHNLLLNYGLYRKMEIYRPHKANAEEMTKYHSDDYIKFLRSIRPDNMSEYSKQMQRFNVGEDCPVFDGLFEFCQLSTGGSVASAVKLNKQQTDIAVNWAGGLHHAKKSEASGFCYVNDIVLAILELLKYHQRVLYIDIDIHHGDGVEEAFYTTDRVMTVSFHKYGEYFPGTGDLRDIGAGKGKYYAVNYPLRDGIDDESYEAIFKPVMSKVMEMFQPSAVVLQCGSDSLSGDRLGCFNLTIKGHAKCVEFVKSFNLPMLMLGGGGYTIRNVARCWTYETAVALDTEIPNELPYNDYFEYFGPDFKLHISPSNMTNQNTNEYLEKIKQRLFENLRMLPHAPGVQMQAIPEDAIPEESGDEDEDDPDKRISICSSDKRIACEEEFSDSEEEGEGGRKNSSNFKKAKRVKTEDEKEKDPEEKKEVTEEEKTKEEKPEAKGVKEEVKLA

SMILES | IC50 (human recombinant HDAC1; [1]) [nM] | HDAC6 selectivity (fold) (human recombinant HDAC6; HDAC6 over HDAC1) | IC50 (human recombinant HDAC6; [2]) [nM] | IC50 (human recombinant HDAC1; [3]) [nM] | HDAC6 selectivity (fold) (human recombinant HDAC6; HDAC1 IC50 / HDAC6 IC50) | IC50 (human recombinant HDAC6; [4]) [nM]
Fc1cc(-c2nnc(C(F)F)o2)ccc1Cn1cc(-c2ccccc2CN2CCCC2)nn1 [Compound 4585, 2-(difluoromethyl)-5-(3-fluoro-4-((4-(2-(pyrrolidin-1-ylmethyl)phenyl)-1H-1,2,3-triazol-1-yl)methyl)phenyl)-1,3,4-oxadiazole] | > 50000 | 237 | 210 | – | – | –
FC(F)c1nnc(-c2ccc(Cn3cc(-c4cccc(C5CN(C6CCC6)C5)c4)nn3)nc2)o1 [Compound 4504, 2-(6-((4-(3-(1-cyclobutylazetidin-3-yl)phenyl)-1H-1,2,3-triazol-1-yl)methyl)pyridin-3-yl)-5-(difluoromethyl)-1,3,4-oxadiazole] | > 50000 | 3703 | 13.5 | – | – | –
CN1CC(N2CCC(c3cccc(-c4cn(Cc5ncc(-c6nnc(C(F)F)o6)cc5F)nn4)c3)CC2)C1 [Compound 18877, 2-(difluoromethyl)-5-(5-fluoro-6-((4-(3-(1-(1-methylazetidin-3-yl)piperidin-4-yl)phenyl)-1H-1,2,3-triazol-1-yl)methyl)pyridin-3-yl)-1,3,4-oxadiazole] | > 50000 | 367 | 136 | – | – | –
Fc1cc(-c2nnc(C(F)F)o2)cnc1Cn1cc(-c2cccc3[nH]ccc23)nn1 [Compound 18921, 2-(6-((4-(1H-indol-4-yl)-1H-1,2,3-triazol-1-yl)methyl)-5-fluoropyridin-3-yl)-5-(difluoromethyl)-1,3,4-oxadiazole] | > 50000 | 1592 | 31.4 | – | – | –
Fc1cc(-c2nnc(C(F)F)o2)ccc1Cn1cc(-c2ccc(F)c(N3CCNCC3)c2)nn1 [Compound 4397, 2-(difluoromethyl)-5-(3-fluoro-4-((4-(4-fluoro-3-(piperazin-1-yl)phenyl)-1H-1,2,3-triazol-1-yl)methyl)phenyl)-1,3,4-oxadiazole] | – | – | – | > 50000 | 766 | 65.2
CC1CCN(Cc2cccc(-c3cn(Cc4ncc(-c5nnc(C(F)F)o5)cc4F)nn3)c2)CC1 [Compound 18459] | > 50000 | 778 | 64.2 | – | – | –
Fc1cc(-c2nnc(C(F)F)o2)ccc1Cn1cc(-c2ccc(CN3CCCC3)s2)nn1 [Compound 17913, 2-(difluoromethyl)-5-(3-fluoro-4-((4-(5-(pyrrolidin-1-ylmethyl)thiophen-2-yl)-1H-1,2,3-triazol-1-yl)methyl)phenyl)-1,3,4-oxadiazole] | > 50000 | 1547 | 32.3 | – | – | –
CCN1CC(C(=O)Nc2cccc(-c3cn(Cc4ccc(-c5nnc(C(F)F)o5)cn4)nn3)c2)C1 [Compound 4464, N-(3-(1-((5-(5-(difluoromethyl)-1,3,4-oxadiazol-2-yl)pyridin-2-yl)methyl)-1H-1,2,3-triazol-4-yl)phenyl)-1-ethylazetidin-3-carboxamide] | – | – | – | > 50000 | 1650 | 30.3
Fc1cc(-c2nnc(C(F)F)o2)ccc1Cn1cc(-c2cccc3cc[nH]c23)nn1 [Compound 4082, 2-(4-((4-(1H-indol-7-yl)-1H-1,2,3-triazol-1-yl)methyl)-3-fluorophenyl)-5-(difluoromethyl)-1,3,4-oxadiazole] | – | – | – | > 50000 | 349 | 143
Fc1cc(-c2nnc(C(F)F)o2)ccc1Cn1cc(-c2ccc(CN3CC(F)C3)cc2)nn1 [Compound 4467, 2-(difluoromethyl)-5-(3-fluoro-4-((4-(4-((3-fluoroazetidin-1-yl)methyl)phenyl)-1H-1,2,3-triazol-1-yl)methyl)phenyl)-1,3,4-oxadiazole] | – | – | – | > 50000 | 2283 | 21.9

Now from value to compound:

IC50 (human recombinant HDAC1; [1]) [nM] | HDAC6 selectivity (fold) (human recombinant HDAC6; HDAC6 over HDAC1) | IC50 (human recombinant HDAC6; [2]) [nM] | IC50 (human recombinant HDAC1; [3]) [nM] | HDAC6 selectivity (fold) (human recombinant HDAC6; HDAC1 IC50 / HDAC6 IC50) | IC50 (human recombinant HDAC6; [4]) [nM] | SMILES
– | – | – | > 50000 | 2463 | 20.3 | CCN1CCN(c2ccc(F)c(-c3cn(Cc4ccc(-c5nnc(C(F)F)o5)cc4)nn3)c2)CC1 [Compound 4452, 2-(difluoromethyl)-5-(4-((4-(5-(4-ethylpiperazin-1-yl)-2-fluorophenyl)-1H-1,2,3-triazol-1-yl)methyl)phenyl)-1,3,4-oxadiazole]
– | – | – | > 50000 | 1831 | 27.3 | C[C@@H]1CN(c2cccc(-c3cn(Cc4ccc(-c5nnc(C(F)F)o5)cc4F)nn3)c2)C[C@H](C)N1 [Compound 4439, 2-(difluoromethyl)-5-(4-((4-(3-((3R,5S)-3,5-dimethylpiperazin-1-yl)phenyl)-1H-1,2,3-triazol-1-yl)methyl)-3-fluorophenyl)-1,3,4-oxadiazole]
– | – | – | > 50000 | 1213 | 41.2 | CCN1CCN(Cc2ccc(-c3cn(Cc4ccc(-c5nnc(C(F)F)o5)cc4F)nn3)cc2)CC1 [Compound 4474, 2-(difluoromethyl)-5-(4-((4-(4-((4-ethylpiperazin-1-yl)methyl)phenyl)-1H-1,2,3-triazol-1-yl)methyl)-3-fluorophenyl)-1,3,4-oxadiazole]
– | – | – | > 50000 | 219 | 22.8 | CN1CCC(Nc2cccc(-c3cn(Cc4ccc(-c5nnc(C(F)F)o5)cn4)nn3)c2)CC1 [Compound 3830, N-(3-(1-((5-(5-(difluoromethyl)-1,3,4-oxadiazol-2-yl)pyridin-2-yl)methyl)-1H-1,2,3-triazol-4-yl)phenyl)-1-methylpiperidin-4-amine]
– | – | – | > 50000 | 892 | 56 | CN1CCN(Cc2cccc(-c3cn(Cc4ccc(-c5nnc(C(F)F)o5)cc4F)nn3)c2)CC1 [Compound 4406, 2-(difluoromethyl)-5-(3-fluoro-4-((4-(3-((4-methylpiperazin-1-yl)methyl)phenyl)-1H-1,2,3-triazol-1-yl)methyl)phenyl)-1,3,4-oxadiazole]
– | – | – | > 50000 | 1872 | 26.7 | CCN1[C@H](C)CN(c2cccc(-c3cn(Cc4ccc(-c5nnc(C(F)F)o5)cc4F)nn3)c2)C[C@@H]1C [Compound 4444]
– | – | – | > 50000 | 1170 | 42.7 | CCN1CCC(c2cccc(-c3cn(Cc4ccc(-c5nnc(C(F)F)o5)cc4F)nn3)c2)CC1 [Compound 4291, 2-(difluoromethyl)-5-(4-((4-(3-(1-ethylpiperidin-4-yl)phenyl)-1H-1,2,3-triazol-1-yl)methyl)-3-fluorophenyl)-1,3,4-oxadiazole]
– | – | – | > 50000 | 1126 | 44.4 | FC(F)c1nnc(-c2ccc(Cn3cc(-c4cccc(CN5CCC(F)(F)CC5)c4)nn3)nc2)o1 [Compound 4401, 2-(difluoromethyl)-5-(6-((4-(3-((4,4-difluoropiperidin-1-yl)methyl)phenyl)-1H-1,2,3-triazol-1-yl)methyl)pyridin-3-yl)-1,3,4-oxadiazole]
– | – | – | > 50000 | 794 | 62.9 | Fc1cc(-c2nnc(C(F)F)o2)ccc1Cn1cc(-c2cccc(CN3CCC(F)(F)CC3)c2)nn1 [Compound 4405, 2-(difluoromethyl)-5-(4-((4-(3-((4,4-difluoropiperidin-1-yl)methyl)phenyl)-1H-1,2,3-triazol-1-yl)methyl)-3-fluorophenyl)-1,3,4-oxadiazole]
– | – | – | > 50000 | 1524 | 32.8 | CN1CCN(Cc2cccc(-c3cn(Cc4ccc(-c5nnc(C(F)F)o5)cn4)nn3)c2)CC1 [Compound 3917, 2-(difluoromethyl)-5-(6-((4-(3-((4-methylpiperazin-1-yl)methyl)phenyl)-1H-1,2,3-triazol-1-yl)methyl)pyridin-3-yl)-1,3,4-oxadiazole]
